What was measured:
[1] = Screen (mesh) particle size analysis; assay type: physicochemical; conditions: uncoated feed powder
[2] = uncoated feed powder
[3] = uncoated feed powder; remark: listed apart in the source

mean particle size [1]: about 200 mesh
loose bulk density [2]: 0.38 g/cc
moisture content [3]: 0.06 % by weight
Structure (SMILES): Cc1c(C)c2c(c(C)c1OC(=O)CCC(=O)O)CC[C@@](C)(CCC[C@H](C)CCC[C@H](C)CCCC(C)C)O2 [succinate (vitamin E), tocopherol succinate]

— patent US20050214367A1, “Processes for making coated phytochemicals and tocopherols and products formed therefrom” (priority 2004, published 2005)
